The values that follow come from publication PMC4932606, “Novel stereoselective bufadienolides reveal new insights into the requirements for Na^+, K^+-ATPase inhibition by cardiotonic steroids” (Scientific Reports, 2016).

Test [1] deals with T1, Na+, K+-ATPase from pig kidney microsomal membranes (Sus scrofa, UniProt P05024).
T1 construct: Na^+, K^+-ATPase from pig kidney microsomal membranes was purified by differential centrifugation; from tissue; host or cells: pig kidney microsomal membranes
In words: Na+,K+-ATPase inhibition assay (residual ATP hydrolysis after 2 h preincubation with inhibitor).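 As to all read-outs here: enzyme preincubated with inhibitor in 40 mM Tris pH 7.0 containing 3 mM MgCl2 and 3 mM Na-phosphate, remaining activity measured as phosphate released from ATP.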 The following applies: for KC (equilibrium constant E•I ↔ E•I*): KC = Fhigh/Flow; for Ki: Ki (dissociation constant of initial binding E + I ↔ E•I), derived from KDiss,high and KC; for percentage of high-affinity component (Fhigh): magnitude of high-affinity component of the inhibition curve; for percentage of low-affinity component (Flow): magnitude of low-affinity component of the inhibition curve; for ratio of KDiss,high values α-isomer:β-isomer: stereoselectivity, α:β of the same pair. It is filed as biochemical.
Description: The residual rates of ATP hydrolysis were plotted vs. different drug concentrations and analysed by fitting hyperbolic functions corresponding to a dominant high-affinity component and (where appropriate) a second smaller low-affinity component, and the resulting kinetic parameters were shown in Table 1.
The solid lines represent hyperbolic fits to the inactivation measured after preincubation of the inhibitors with NKA for 2 hours at 37 °C in the presence of Mg^2+ and Pi.
Na^+, K^+-ATPase from pig kidney microsomal membranes was purified by differential centrifugation[27]. […] The inhibitory effects of bufadienolides on NKA were determined essentially as previously reported[9][10].
Preparation and activity assay of Na+,K+-ATPase
Na+,K+-ATPase from pig kidney microsomal membranes was purified by
differential centrifugation.27 The specific Na,K-ATPase activity was determined
from the difference in the amount of phosphate released in the absence and
4 mM MgCl2 and 3 mM ATP. The specific activity of the enzyme preparation
was approximately 30 µmol ATP hydrolysed/mg protein per min at 37°C.27 The
phosphorylation capacity is about 2.9 nmol/mg protein and is equal to the
high-affinity ouabain binding capacity.10, 27
Details of the kinetic analysis of inhibition
The inhibitory effects of bufadienolides on NKA were determined
essentially as previously reported9, 10. In brief, NKA is preincubated at 37 °C for
2 hours in the presence of 3 mM MgCl2, 3 mM Na-phosphate and 40 mM Tris
(pH 7.0) with increasing concentrations of inhibitor. The residual NKA activity is
subsequently determined by 40-fold dilution into a standard ATPase assay
For each inhibitor concentration the
residual activity was determined in two or three independent experiments and
the error bars in Fig. 4 indicate the standard deviation.
(2) Detailed explanation of the kinetic analysis of inhibition
The interaction between bufalins (I) and Na+,K+-ATPase (E) is interpreted as
relatively slow equilibrium.
The binding of I to E is described by a dissociation constant
The conformational change
is described by an equilibrium constant
After equilibrium is attained by preincubation of the enzyme and inhibitor,
the residual Na+,K+-ATPase activity is measured by a 40-fold dilution into the
assay medium for 2 min. It is assumed that the dilution leads to an immediate
dissociation of E•I into E + I, and it is also assumed that the conformational
change E•I ↔ E•I* is slow on the 2-minutes time scale of the functional assay.
The observed decrease in the Na+,K+-ATPase activity is thus an estimate
of the amount of E•I* present at a given inhibitor concentration in the
preincubation media, and the observed concentration dependence of
inactivation is related to Ki as well as KC.

Another test relates to Na+,K+-ATPase membranes. Put plainly: 13C CP-MAS SSNMR of NKA membranes with labelled inhibitor (binding-site saturation estimated from Table 1). The arrangement: species or system pig. The following applies: NKA 13 nmol with 16 nmol inhibitor. From the text: We next considered whether the enhanced activity of 5β arises from the additional hydrogen-bonding capacity of the glucose moiety. […] Here we used ^13C cross-polarization magic-angle spinning (CP-MAS) SSNMR to report on the interactions of the glycosidic groups of 5α and 5β with the binding site. […] In Fig. 5 panels C and D are shown ^13C CP-MAS SSNMR spectra of NKA (13 nmol) in the absence of inhibitor (red) and with 5β or 5α (each 16 nmol) (black), respectively. From Table 1 it is estimated that there is 99.5% saturation of the binding site by 5β and about 75% saturation by 5α. For the complex with 5β (Fig. 5C), signals from the inhibitor can clearly be observed around 60–90 ppm; […].
One dimensional proton-decoupled ^13C CP-MAS NMR experiments were performed at −25 °C using a Bruker Avance 400 MHz spectrometer at a magnetic field of 9.3 T equipped with a 4 mm HXY probe and (for 2D measurements on membranes) on a Bruker Avance III 700 MHz instrument with a 3.2 mm HXY probe operating in double-resonance mode. Samples were spun at a MAS rate of 5 kHz in a 4 mm zirconium rotor. […] Two-dimensional DARR spectra of solid inhibitors were recorded at room temperature with a 2-ms contact time at a field of 63 kHz, 83 kHz SPINAL-64 decoupling, […] and a 8-kHz proton field matched to the spinning frequency during a 10-ms mixing time. […]

The mark [2] stands for this setting: KDiss,high, high-affinity component of inhibition curve, preincubation 2 h, 37 °C, Mg2+ and Pi.
The mark [3] stands for this setting: KDiss,low, low-affinity component of inhibition curve, reflects ATPase assay medium.

Values joined by “and” are separate entries in the source; they are usually repeats but may differ in a detail not shown here. Identical values can stand only once.

`C[C@]12CC[C@](O)(C(F)(F)F)C[C@H]1CC[C@@H]1[C@@H]2CC[C@]2(C)[C@@H](c3ccc(=O)oc3)CC[C@]12O` [Compound 6α]: in test [1], the “KC (equilibrium constant E•I ↔ E•I*)” value worked out at 1.86, the Ki was 42.2 µM, the “percentage of high-affinity component (Fhigh)” value (“percentage … (Fhigh)” for short) is on record as 65% and the “percentage of low-affinity component (Flow)” value (shortened to “percentage … (Flow)”) came out at 33%. Besides, the “ratio of KDiss,high values α-isomer:β-isomer” value in test [1] is 6.4. The Kd in test [1] (setting [2]) is 22.7 ± 1.56 µM. Besides, binding in test [1] (setting [3]) was characterised by a dissociation constant (Kd) of 242 ± 35 µM.
On to `CON[C@H]1CC[C@@]2(C)[C@H](CC[C@@H]3[C@@H]2CC[C@]2(C)[C@@H](c4ccc(=O)oc4)CC[C@]32O)C1` [Compound 4β], for which, in test [1], the “KC (equilibrium constant E•I ↔ E•I*)” value was 6.14; the Ki is ~0.31 µM and 0.31 µM. This molecule registered a Kd in test [1] (setting [2]) of less than 0.05 µM. Moreover, the Kd in test [1] (KDiss,low, low-affinity component, value in mM) is more than 1000 µM.
Turning to `C[C@]12CC[C@@](O)(C(F)(F)F)C[C@H]1CC[C@@H]1[C@@H]2CC[C@]2(C)[C@@H](c3ccc(=O)oc3)CC[C@]12O` [Compound 6β], in test [1], the “KC (equilibrium constant E•I ↔ E•I*)” value turned out to be 1.78, the Ki stood at 6.3 µM, the “percentage … (Fhigh)” value was 64% and the “percentage … (Flow)” value was 32%. Further, the Kd in test [1] (setting [2]) turned out to be 3.56 ± 0.6 µM. Besides, in test [1] (setting [3]), the Kd worked out at 93.5 ± 67 µM.
Consider `CON([C@@H]1CC[C@@]2(C)[C@H](CC[C@@H]3[C@@H]2CC[C@]2(C)[C@@H](c4ccc(=O)oc4)CC[C@]32O)C1)[C@@H]1O[C@H](CO)[C@@H](O)[C@H](O)[C@H]1O` [Compound 5α], for which the “saturation of the binding site” value in the test with Na+,K+-ATPase membranes was “about 75%”. Also, in test [1], the “KC (equilibrium constant E•I ↔ E•I*)” value was 49, the Ki stood at 1920 µM, the “percentage … (Fhigh)” value came to 98% and the “ratio of KDiss,high values α-isomer:β-isomer” value was 461. This molecule returned a Kd in test [1] (setting [2]) of 39.2 ± 1.5 µM.
As to `CON(C1CCC2(C)C(CCC3C2CCC2(C)C(c4ccc(=O)oc4)CCC32O)C1)C1OC(CO)C(O)C(O)C1O` (stereo not drawn) [Compound 5β], the “saturation of the binding site” value in the test with Na+,K+-ATPase membranes is on record as 99.5%. In test [1], the “KC (equilibrium constant E•I ↔ E•I*)” value turned out to be 3.17; the Ki is ~0.26 µM and 0.26 µM; the “percentage … (Fhigh)” value is 76%. In test [1] (setting [2]), this molecule returned a Kd of 0.085 ± 0.01 µM. Also, in test [1] (setting [3]), the Kd worked out at 67.6 ± 38 µM.
On to `CON[C@@H]1CC[C@@]2(C)[C@H](CC[C@@H]3[C@@H]2CC[C@]2(C)[C@@H](c4ccc(=O)oc4)CC[C@]32O)C1` [Compound 4α], for which, in test [1], the “KC (equilibrium constant E•I ↔ E•I*)” value is recorded as 9.0, the Ki was determined as 65 µM, the “percentage … (Fhigh)” value came to 90% and the “percentage … (Flow)” value is 10%. For the same molecule, the “ratio of KDiss,high values α-isomer:β-isomer” value in test [1] was 145. Also, binding in test [1] (setting [2]) was characterised by a dissociation constant (Kd) of 7.26 ± 0.16 µM. Besides, the Kd in test [1] (setting [3]) was found to be 524 ± 153 µM.

One may read the Kd as the equilibrium constant for the complex coming apart. Lower therefore signals a tighter complex. In general, Ki refers to the equilibrium dissociation constant of an inhibitor or competing ligand from its target.
